These are literature values, as cited in patent publication US20080226713A1, “Controlled Release Pharmaceutical Compositions of Tolperisone for Oral Administration” (priority 2004, published 2008).

For data set [1] the following is noted: JP-A-53-40779.
For data set [2] the following is noted: rat.

Molecules are shown by their SMILES. Read-outs that look alike come from different tables or passages of the source.

Take `Cc1ccc(C(=O)C(C)CN2CCCCC2)cc1` (stereo not drawn) [R(−)tolperisone]: the pharmacological effect result in data set [1] (listed as R-tolperisone) is on record as “muscle-relaxing effect”.

Regarding `Cc1ccc(C(=O)C(C)CN2CCCCC2)cc1` (stereo not drawn) [S(+)tolperisone], in data set [1] (listed as S-tolperisone), the pharmacological effect result is “vaso- or bronchodilatory effect”. For the same compound, the “extent of in-vivo inversion into the other enantiomer” value in data set [2] is “up to 20%”.
